B1: Syn5 RNAP: single subunit DNA-dependent RNA polymerase from marine cyanophage Syn5, amino acid sequence SEQ ID NO:23 (protein)
chain: MSFDLIARQLQRETEAAELARKRLQDARREANERSYASSNIESRKAIATFLDPIAQRIGERLFTLRRGTGAVDAAEVYKHLKNADHHHLALITMKTALDVLGKDPEPQIQQLTTAIGRNIQLELRLTYYAEENPELYKQASRFFHAGTGTRQKATVIKLKFNREGIEWDQWSRVTCHKVGQWLMLAMADVTGWIERATDRTSGGRKTKTRICYSREFLQHRDTILAAAEQLAFCQWPMLCPPIEWSNDHNGGYLSEQIRRVNPLIRKTGPLGTRKQGDIPLAMLNNLQGQAYKVNPEVLDIANHCYESNVTVGKFIRHAPLPVPPSPGEDCTEDQLTAYKRARREAEDFNAQISQKNWRTTEVMYVARKYADEASFWMPASFDYRGRVYFLNTALNPQGTDFDKALLYFAEEGPVNEWWLSFHVATTYGLDKETMVNRVQWARDNHELIDRIASDPVRHTEWHDADEPWCFLAACLEYKACVIDGTKQTSGLPIGIDATCSGLQHLAAMTRCGRTAALVNVTPTDKPADAYKTVAQASLKHLPKEQHEWITRKVTKRPVMCTPYGVTMSSARGYIRDQLVKDGHKEDLRSPGVLNGIVKAIFNEAIPEVIPGPVQVMAWLKRSAGQIIDRGDSTITWTTPSGFEVVQDLKKSKTYEVKTRIMGGARIKLQVGDGFTDEPDRDHHKSALAPNVVHSNDASLLHLTFAFWDKPFTVIHDCVLGRSCDMDQMGSDIRLHFAEMYKADVMQDWADQVGVELPVDLIKNTLDIDSVNQSLYFFS
modifications: Amino acid sequence of a cyanophage Syn5 RNAP

Key:
[1] = tested on: DNA templates S5P-tDNAR or T7P-tDNAR; experiment: Run-off synthesis of small RNA (tRNA^Arg), analytical scale, denaturing gel; format: biochemical; conditions: for N+1 product in tRNA^Arg synthesis: 37° C., 22, 67, 200 nM enzyme; for N+1 product in run-off products: all temperatures (16° C., RT, 37° C.) and KCl concentrations examined
From the text: FIGS. 10A-10B depict a comparison of T7 and Syn5 RNA polymerase in run-off synthesis of small RNA. A) Effect of temperature and salt concentration on the RNA synthesis by T7 and Syn5 RNA polymerase. B) Similar as A) except that His-tagged T7 RNA polymerase was used.
(§1) FIGS. 11A-11B depict synthesis of tRNA^Arg by Syn5 and T7 RNA polymerase. A) Synthesis of tRNA^Arg at analytical scale by various amounts of Syn5 and T7 RNA polymerase. Using radioactively labeled CTP, the tRNA^Arg and N+1 product (as marked) produced by 22, 67, 200 nM Syn5 and T7 RNA polymerase at 37° C. are shown. […] The DNA encoding E. coli tRNA^ArgACG is directly downstream of a Syn5 or T7 promoter for the cognate RNA polymerase to synthesize run-off tRNA transcript. B) Synthesis of tRNA^Arg at preparative scale by Syn5 and T7 RNA polymerase. The sequencing gel is showing the analysis of the total RNA products by Syn5 and T7 RNAP at 37° C. in a 200 µl reaction. RNAs were purified by either ZYMO RNA clean kit or phenol/chloroform extraction followed by ethanol precipitation (P/C/E), as noted on top of the gel. The native tRNA^Arg (with modifications) overexpressed and purified from E. coli cells was used as a size marker. The two major bands in the total RNAs are tRNA^Arg and N+1 product as marked.
FIGS. 12A-12B depict synthesis of long run-off product and the incorporation of modified nucleotides by Syn5 and T7 RNA polymerase. A) On the linearized plasmid template as shown in the schematic, the production of RNA by either RNA polymerase (10 nM) was analyzed on agarose gel as lane 2. […] Lane 3 and 4 show the same RNA synthesis when CTP was replaced by 5mCTP and UTP by Ps-UTP, respectively. B) Incorporation of UTP or Ps-UTP into small RNA by 22, 67, and 200 nM Syn5 and T7 RNA polymerase as analyzed by denaturing TBE polyacrylamide gel. Full-length run-off product and the N+1 product are shown.
DNA templates for transcription assays were either plasmids or dsDNA fragments made of synthesized oligonucleotides. To test the processivity of Syn5 and T7 RNAP, a single Syn5 or T7 promoter plus 3 guanosine downstream of the promoter (Syn5 5′-ATTGGGCACCCGTAAGGG-3′ (SEQ ID NO:1) or T7 5′-[…]-3′) (SEQ ID NO:2) was inserted between the BamHI and XbaI sites of plasmid pUC19 to form pUC19-S5P or pUC19-T7P. The templates for run-off tRNA^Arg synthesis were formed by annealing of two complementary synthesized DNA oligos of which sequences are as following:
For the results shown in FIG. 10, reaction mixtures (10 μl) contained 40 mM Tris-HCl pH 8.0, 6 mM MgCl2, 2 mM spermidine, 10 mM DTT, 200 µm[…]P, GTP and UTP, 10 µM [[…]-^32P]CTP, 1.5 U/µl RNaseOUT™ recombinant ribonuclease inhibitor, 0.5 μM DNA templates S5P-tDNAR or T7P-tDNAR, 100 nM Syn5 or T7 RNAP, and various amount of KCl as noted in the figure. Reactions were carried out at various temperatures of 16° C., room temperature, or 37° C. for 30 min before adding of one unit of DNase I to each reaction mixture and an additional incubation of 15 min at 37° C. Reactions were then terminated by the addition of 4 µl of loading dye containing 95% formamide and 40 mM EDTA. Samples were then heated at 90° C. for 1 min and 4 µl sample each was loaded onto 15% TBE-Urea denaturing polyacrylamide gels. After electrophoresis, gels were dried and analyzed using a Fuji BAS 1000 Bioimaging Analyzer.
For the results shown in FIG. 11A, reaction mixtures (10 μl) containing 40 mM Tris-HCl pH 8.0, 6 mM MgCl2, 2 mM spermidine, 10 mM DTT, 200 µM[…]P, GTP and UTP, 10 µM [[…]-^32P]CTP, 1.5 U/µl RNaseOUT™ recombinant ribonuclease inhibitor, 0.5 μM DNA templates S5P-tDNAR or T7P-tDNAR, and various amount of Syn5 or T7 RNAP were incubated at 37° C. for 30 min before adding of one unit of DNase I to each reaction mixture and an additional incubation of 15 min at 37° C. Reactions were then terminated by the addition of 4 µl of loading dye containing 95% formamide and 40 mM EDTA. […]

[2] = tested on: E. coli total aminoacyl-tRNA synthetases; experiment: tRNA aminoacylation assay of RNAP products; format: biochemical; conditions: for desired (functional) tRNA in total RNA products: without gel extraction, maximum charging at 30 min
Method: as §1
tRNA Aminoacylation Assay tRNA aminoacylation assay was performed as described previously (Tan et al.). A reaction containing 100 mM Tris-HCl, pH 7.5, 30 mM KCl, 12 mM MgCl2, 0.5 mM DTT, 4 mM ATP, 0.2 […]RNA (purified native E. coli tRNA^Arg (Zhu et al. (2012)), or purified tRNA^Arg transcripts from Syn5 or T7 RNAP reaction using RNA Clean & Concentrator™-5 kit), 15 µM [^3H] arginine (15 Ci/mmol), and 4 µM E. coli total aminoacyl-tRNA synthetases was incubated at 37° C. for the indicated time period. 5 µl reaction mixtures were spotted onto Whatman DE(81) filters and reactions stopped by 10% TCA solution containing 0.5 mM arginine. The filters were washed twice with 10% TCA and once with ethanol, and then dried. The amount of amino acid charged to tRNA was determined by measuring radioactivity remained on the filters.

Molecule	run-off synthesis at high salt ([1]; 160 mM KCl)	N+1 product in tRNA^Arg synthesis [1]	N+1 product in run-off products [1]	products when UTP replaced by Ps-UTP ([1]; small RNA, radioactively labeled CTP)	desired (functional) tRNA in total RNA products [2] [%]	run-off synthesis at high salt ([1]; 250 mM KCl)	amino acid charging activity of products ([2]; [3H] arginine, 37° C.)
T7 RNAP: RNA polymerase encoded by bacteriophage T7, from New England Biolabs [reference compound]	little activity	more N+1 product than the desired product	abundant amounts of the N+1 product	produced predominantly N+1 products	15	–	–
B1	–	absence of N+1 product	did not contain detectable N+1 product band	–	40	produces significant amounts of product	much higher than that obtained from the T7 RNAP reaction

Reference: patent US11066655B2, “RNA polymerase, methods of purification and methods of use” (President and Fellows of Harvard College, priority 2013, dated 2021)
